Among the data in patent publication US5654296A, “Condensed heterocyclic compounds, their production and use” (priority 1994, dated 1997) are IC50 values, retold here.

Where a name gives a salt, the structure may show the parent alone.

One experiment relates to serotonine (5-HT) uptake. Put plainly: Activity to inhibit serotonine (5-HT) uptake. In kind it is biochemical. The note with it: rat whole brain; 3H-5-HT 10 nM; 37° C.; pH 7.4; read-out: 5-HT uptake inhibitory activity (IC50 μM). How it is done:
(a) Activity to inhibit serotonine (5-HT) uptake
(§1) The experiment was performed in accordance with the method of Hyttel et al. [Psychopharmacology 60, 13, 1978]. The whole brain of a rat was homogenized in 40 volumes of ice-cooled 0.32M sucrose solution containing 10 μM pargyline and, then, centrifuged (600×G) for 10 minutes. The supernatant was centrifuged (2500×G) for 55 minutes to provide a pellet. This pellet was suspended in Krebs-Ringer-phosphate buffer (pH 7.4; 122 mM NaCl, 4.82 mM KCl, 0.972 mM CaCl2, 1.21 mM MgSO4, 12.7 mM Na2 HPO4, 2.97 mM NaH2 PO4, 0.162 mM EDTA sodium, 10 mM glucose, 1.14 mM ascorbic acid) saturated with a mixed gas (95% O and 5% CO2). To 900 μl of this suspention was added a solution of the test drug (10 μl) in DMSO and the mixture was incubated at 37° C. for 5 minutes. Then, 100 μl of ^3 H-5-HT (final concentration 10 nM) was added and the mixture was further incubated at 37° C. for 5 minutes. This reaction mixture was filtered under suction using a GF/B filter and the filter was washed with 4 ml of the above-mentioned buffer. The radioactivity on the filter was measured by the liquid scintillation method.
The amount of the drug which caused a 50% decrease in 5-HT uptake is shown as 50% inhibitory activity (IC50) in Table 42.

The subject of experiment [1] is 45Ca2+ uptake (veratrine-stimulated, rat cerebral cortex crude synaptosome fraction). In words: 45Ca2+ uptake inhibition experiment. In kind it is biochemical. The note with it: 30 μM veratrine, 37° C., 10 minutes, read-out: 45Ca2+ uptake inhibitory activity (IC50 μM). How it is done: The rat cerebral cortex was homogenized in 10 volumes of ice-cooled 0.32M sucrose solution to prepare a crude synaptosome fraction (100×G, 10 min., 12000×G, 20 min.). […] To 900 μl of the homogenate was added a DMSO solution of the test drug (10 μl). The mixture was incubated at 37° C. for 10 minutes, followed by addition of 100 μl of a veratrine solution (containing 0.18 uci ^45 Ca^2+) at a final veratrine concentration of 30 μM. The mixture was incubated at 37° C. for 10 minutes, quenched with 4 ml of ice-cooled EGTA solution (120 mM sodium chloride, 5 mM potassium chloride, 5 mM EGTA, pH=7.5) and suction-filtered using a GF/B filter. The filter was washed twice with 4 ml each of a washing solution (132 mM sodium chloride, 5 mM potassium chloride, 1.3 mM magnesium chloride, 1.2 mM calcium, chloride, 20 mM Tris base, pH 7.5) and the radioactivity of […] was measured by the liquid scintillation method.
The ^45 Ca^2+ uptake inhibition rate was calculated by means of the following equation. [formula] A: The ^45 Ca^2+ uptake after 10 minutes' stimulation with 30 μM veratrine in the presence of the test drug
B: The ^45 Ca^2+ uptake in the absence of veratrine and in the presence of the test drug
C: The ^45 Ca^2+ uptake after 10 minutes' stimulation with 30 μM veratrine in the absence of the test drug
D: The ^45 Ca^2+ uptake in the absence of the test drug and in the absence of veratrine

Experiment [2] relates to norepinephrine (NE) uptake. Put plainly: Activity to inhibit norepinephrine (NE) uptake. In kind it is biochemical. The note with it: rat cerebral cortex; 3H-NE; read-out: NE uptake inhibitory activity (IC50 μM). How it is done:
as §1
(b) Activity to inhibit norepinephrine (NE) uptake
Using the rat cerebral cortex and, as the substrate, ^3 H-NE, an experiment was performed by otherwise the same procedure as described for 5-HT.

Experiment [3] has as its target T1, GnRH receptors (bovine pituitary anterior lobe membrane fraction) (Bos taurus, UniProt P32236).
T1 construct: A bovine pituitary anterior lobe membrane fraction containing GnRH receptors was prepared; from tissue; host or cells: bovine pituitary anterior lobe, membrane fraction
T1 sequence (P32236 1-328): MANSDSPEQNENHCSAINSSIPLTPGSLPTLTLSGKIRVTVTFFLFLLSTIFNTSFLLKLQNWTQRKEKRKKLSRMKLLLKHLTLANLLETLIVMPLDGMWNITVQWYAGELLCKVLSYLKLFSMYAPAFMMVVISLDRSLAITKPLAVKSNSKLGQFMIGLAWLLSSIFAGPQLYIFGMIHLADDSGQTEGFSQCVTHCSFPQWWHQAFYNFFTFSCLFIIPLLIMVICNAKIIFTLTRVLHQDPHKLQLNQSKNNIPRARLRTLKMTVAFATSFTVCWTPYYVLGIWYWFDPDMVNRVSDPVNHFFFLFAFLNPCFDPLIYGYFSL
In words: 125I-leuprolerin GnRH receptor binding inhibition test, bovine pituitary anterior lobe membrane fraction. The note with it: 4° C., 90 minutes, read-out: Binding inhibitory activity (IC50 μM) Bovine. How it is done:
Ten (10) μl of 3×10^4 M aqueous leuprolerin solution and 10 μl of 0.01 mg/ml lactoperoxidase were taken in a tube and 10 μl of Na^125 I solution (37 MBq) was added. After stirring, 10 μl of 0.001% H2 O2 was added and the reaction was conducted at room temperature for 20 minutes. Then, 700 μl of 0.05% TFA solution was added to the tube to terminate the reaction and the reaction mixture was purified by reverse-phase HPLC. The HPLC conditions are shown below. ^125 I-leuprolerin was eluted after a retention time of 26-27 minutes. (C) Preparation of a Bovine Pituitary Anterior Lobe Membrane Fraction Containing GnRH Receptors A bovine pituitary anterior lobe membrane fraction containing GnRH receptors was prepared by the same procedure as described under (B). However, a 10,000×G centrifugation supernatant was recentrifuged at 100,000×G for 1 hour to provide the membrane fraction pellet. […] For the rat and human membrane fractions prepared in (B) and (D), each membrane fraction was diluted with assay buffer to a concentration of 200 μg/ml and distributed in 188 μl portions into tubes. As to the bovine membrane fraction prepared in (C), the membrane fraction was diluted with assay buffer to 750 μg/ml and distributed in 188 μl portions into tubes. […] Where the rat or bovine pituitary anterior lobe membrane fraction was used, the reaction was conducted at 4° C. for 90 minutes. Where the membrane fraction of the CHO with human GnRH receptors expressed was used, the reaction was carried out at 25° C. for 60 minutes. […] After filtration, the radioactivity of ^125 I-leuprolerin remaining on the filter was measured with a γ-counter. The expression (TB-SB)/(TB-NSB)×100 (where SB=radioactivity with the compound added, TB=maximum bound radioactivity, NSB=nonspecifically bound radioactivity) was calculated to find the binding inhibition rate of each test compound.

For experiment [4], the target named is T2, GnRH receptors (rat pituitary anterior lobe membrane fraction) (Rattus norvegicus, UniProt P30969).
T2 construct: the anterior lobe of the pituitary gland was isolated and washed with ice-cooled homogenate buffer; from tissue; host or cells: anterior lobe of the pituitary gland, male Wistar rats (8 weeks old), membrane fraction
T2 sequence (P30969 1-327): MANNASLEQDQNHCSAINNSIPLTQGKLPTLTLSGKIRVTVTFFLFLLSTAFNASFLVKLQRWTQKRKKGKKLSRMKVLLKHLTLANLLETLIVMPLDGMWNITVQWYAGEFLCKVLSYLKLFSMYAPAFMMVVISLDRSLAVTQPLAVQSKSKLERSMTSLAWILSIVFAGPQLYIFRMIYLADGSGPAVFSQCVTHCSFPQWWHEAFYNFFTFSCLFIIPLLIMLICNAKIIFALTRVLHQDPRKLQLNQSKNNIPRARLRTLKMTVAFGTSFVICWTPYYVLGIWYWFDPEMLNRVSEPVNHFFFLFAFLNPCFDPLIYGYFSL
In words: 125I-leuprolerin GnRH receptor binding inhibition test, rat pituitary anterior lobe membrane fraction. The note with it: 4° C., 90 minutes, read-out: Binding inhibitory activity (IC50 μM) Rat. How it is done:
Ten (10) μl of 3×10^4 M aqueous leuprolerin solution and 10 μl of 0.01 mg/ml lactoperoxidase were taken in a tube and 10 μl of Na^125 I solution (37 MBq) was added. After stirring, 10 μl of 0.001% H2 O2 was added and the reaction was conducted at room temperature for 20 minutes. Then, 700 μl of 0.05% TFA solution was added to the tube to terminate the reaction and the reaction mixture was purified by reverse-phase HPLC. The HPLC conditions are shown below. ^125 I-leuprolerin was eluted after a retention time of 26-27 minutes. (B) Preparation of a Rat Pituitary Anterior Lobe Membrane Fraction Containing GnRH Receptors […] The pituitary tissue was floated in 2 ml of the homogenate buffer and homogenized using a Polytron homogenizer. The homogenate was centrifuged at 700×G for 15 minutes. The supernatant was taken in an ultracentrifuge tube and centrifuged at 100,000×G for 1 hour to provide a membrane fraction pellet. […] The membrane fraction recovered as a pellet was resuspended in 10 ml of assay buffer, divided into portions, preserved at -80° C. and thawed when needed. […] For the rat and human membrane fractions prepared in (B) and (D), each membrane fraction was diluted with assay buffer to a concentration of 200 μg/ml and distributed in 188 μl portions into tubes. As to the bovine membrane fraction prepared in (C), the membrane fraction was diluted with assay buffer to 750 μg/ml and distributed in 188 μl portions into tubes. […] Where the rat or bovine pituitary anterior lobe membrane fraction was used, the reaction was conducted at 4° C. for 90 minutes. Where the membrane fraction of the CHO with human GnRH receptors expressed was used, the reaction was carried out at 25° C. for 60 minutes. […] After filtration, the radioactivity of ^125 I-leuprolerin remaining on the filter was measured with a γ-counter. The expression (TB-SB)/(TB-NSB)×100 (where SB=radioactivity with the compound added, TB=maximum bound radioactivity, NSB=nonspecifically bound radioactivity) was calculated to find the binding inhibition rate of each test compound.

As a reminder, the IC50 is the concentration that gives 50% inhibition. For the compound `c1ccc(C2(CCN3CCCCC34CCc3ccccc3C4)COCc3ccccc32)cc1` (centres unmarked) [Example I-12, 3,4-Dihydro-1'-[2-(4-phenylisochroman-4-yl)ethyl]spiro[naphthalene-2(1H),2'-piperidine] hydrochloride], the IC50 was found to be 0.022 µM in the experiment with serotonine (5-HT) uptake, 0.85 µM in experiment [1] and 0.015 µM in experiment [2].

Take `COc1ccc(CCNCCCC2(c3ccccc3)COCc3ccccc32)cc1OC` (centres unmarked) [Example I-25, 4-[3-(3,4-Dimethoxyphenethylamino)propyl]-4-phenylisochroman hydrochloride]: the IC50 is 0.14 µM in the experiment on serotonine (5-HT) uptake, 1.19 µM in experiment [1] and 0.39 µM in experiment [2].

Consider `Fc1ccc(N2CCN(CCCC3(c4ccccc4)COCc4ccccc43)CC2)cc1` (centres unmarked) [Example I-30, 4-{3-[4-(p-Fluorophenyl)piperazin-1-yl]propyl}-4-phenylisochroman dihydrochloride], for which the half-maximal inhibitory concentration (IC50) was 0.068 µM in the experiment on serotonine (5-HT) uptake, 1.59 µM in experiment [1] and 0.59 µM in experiment [2].

With `c1ccc(C2CCN(CCCC3(c4ccccc4)COCc4ccccc43)CC2)cc1` (centres unmarked) [Example I-33, 4-[3-(4.-Phenylpiperidino)propyl]-4-phenylisochroman hydrochloride], the IC50 is 0.27 µM in the experiment with serotonine (5-HT) uptake, 0.69 µM in experiment [1] and 0.55 µM in experiment [2].

For `COc1cc2c(cc1OC)CC1(CCCCN1CCCC1(c3ccccc3)COCc3ccccc31)CC2` (centres unmarked) [Example I-37, 3,4-Dihydro-6,7-dimethoxy-1'-[3-(4-phenylisochroman-4-yl)propyl]spiro[naphthalene-2(1H),2'-piperidine] hydrochloride], the IC50 in experiment [3] stood at 6 µM; in experiment [4], 0.03 µM.

With `Cc1cccc(CNCCCC2(c3ccccc3)COCc3ccccc32)c1` (centres unmarked) [Example I-46, 4-[3-(m-Methylbenzylamino)propyl]-4-phenylisochroman hydrochloride], the IC50 in experiment [3] amounted to 14 µM; in experiment [4], 0.5 µM.

On to `O=C1c2ccsc2CCC12CCCCN2CCCC1(c2ccccc2)COCc2ccccc21` (centres unmarked) [Example I-47, 6,7-Dihydro-1'-[3-(4-phenylisochroman-4-yl)propyl]spiro[4-oxobenzo(b)thiophene-5(4H),2'-piperidine] hydrochloride], for which the IC50 in experiment [3] worked out at 7 µM; in experiment [4] it was 0.3 µM.

Consider `COc1ccc2c(c1)CCC1(CCCCN1CCCC1(c3ccccc3)COCc3ccccc31)C2=O` (centres unmarked) [Example I-48, 3,4-Dihydro-6-methoxy-1'-[3-(4-phenylisochroman-4-yl)propyl]spiro[1-oxonaphthalene-2-(1H),2'-piperidine] hydrochloride], for which the IC50 in experiment [3] came out at 10 µM; in experiment [4] it was 0.4 µM.

On to `O=C1c2ccccc2CCC12CCCCN2CCCC1(c2ccccc2)COCc2ccccc21` (centres unmarked) [Example I-49, 3,4-Dihydro-1'-[3-(4-phenylisochroman-4-yl)propyl]spiro[1-oxonaphthalene-2(1H),2'-piperidine] hydrochloride], for which the IC50 came out at 10 µM in experiment [3] and 0.5 µM in experiment [4].

With `COc1cc2c(cc1OC)CC1(CCCCN1CCCC1(c3ccc(F)cc3)COCc3ccccc31)CC2` (centres unmarked) [Example I-50, 3,4-Dihydro-6,7-dimethoxy-1'-{3-[4-(p-fluorophenyl)isochroman-4-yl]propyl}spiro[naphthalene-2(1H),2'-piperidine] hydrochloride], the IC50 in experiment [3] came to 8 µM; in experiment [4] it was 0.08 µM.

As to `c1ccc(C2(CCCNC3CCCc4ccccc43)COCc3ccccc32)cc1` (centres unmarked) [Example I-51, 4-Phenyl-4-{3-[1-(1,2,3,4-tetrahydronaphthylamino)]propyl]isochroman hydrochloride], the IC50 stood at 10 µM in experiment [3] and 0.5 µM in experiment [4].
